Source: the NIST ThermoML archive (doi:10.1021/je501106d)

Conditions: for speed of sound: Brillouin scattering; for vapor or sublimation pressure: Closed cell (Static) method

CCCCCC [hexane]
speed of sound [m/s], Liquid
Conditions	1000 kPa	2500 kPa	4000 kPa	5500 kPa	7000 kPa	7500 kPa	8500 kPa
300.15 K	1080	1090	1102	1115	1129	–	1140
313.15 K	1027	1038	1049	1062	1077	–	1092
328.15 K	964.1	975.9	988.6	1002	1017	–	1032
343.15 K	900.3	913.8	927.8	942.3	957.3	–	972.8
353.15 K	857	872	887.1	902.5	918.1	–	934
363.15 K	813.22	829.9	846.4	862.9	879.3	–	895.7
373.15 K	768.8	787.4	805.6	823.4	840.9	–	857.9
383.15 K	723.8	744.7	764.8	784.1	802.8	–	820.7
393.15 K	678.3	701.6	723.8	744.9	765	–	783.9
403.15 K	632.1	658.2	682.8	705.9	727.5	–	747.7
413.15 K	585.4	614.5	641.7	667	690.4	–	711.9
423.15 K	538.1	570.5	600.6	628.3	653.7	–	676.7
433.15 K	490.1	526.2	559.3	589.7	–	617.3	642
443.15 K	–	481.5	518	551.3	581.2	–	607.8
448.15 K	–	459.1	497.4	532.1	563.3	–	590.9
453.15 K	–	436.6	476.7	513	545.4	–	574.1
458.15 K	–	414	456	493.9	527.7	–	557.4
463.15 K	–	391.3	435.2	474.8	510.1	–	540.9
468.15 K	–	368.5	414.5	455.8	492.5	–	524.5
473.15 K	–	345.7	393.7	436.8	475	–	508.2
478.15 K	–	322.8	372.9	417.9	457.6	–	492.1
483.15 K	–	–	352.1	399	440.3	–	476.1
488.15 K	–	–	331.3	380.1	–	–	–
493.15 K	–	–	310.5	361.3	–	–	–
498.15 K	–	–	289.6	342.5	–	–	–
503.15 K	–	–	268.8	323.7	–	–	–
506.15 K	–	–	256.2	312.5	–	–	–

Conditions	speed of sound, Gas [m/s]	speed of sound, Liquid [m/s]	vapor or sublimation pressure, Liquid [kPa]
300.15 K	–	1073	14
313.15 K	–	993	63
328.15 K	–	926.8	94
343.15 K	–	882.7	122
353.15 K	–	838.8	161
363.15 K	–	794.9	214
373.15 K	–	751	260
383.15 K	178.6	707.2	331
393.15 K	176.6	663.4	413
403.15 K	174.3	619.5	512
413.15 K	171.6	575.6	627
423.15 K	168.3	531.6	762
433.15 K	164.2	487.5	924
443.15 K	159.4	443.1	1113
448.15 K	156.6	420.7	1210
453.15 K	153.5	398.2	1322
458.15 K	150.1	375.6	1447
463.15 K	146.4	352.8	1563
468.15 K	142.2	329.8	1700
473.15 K	137.6	306.4	1843
478.15 K	132.5	282.6	1992
483.15 K	126.9	258.2	2144
488.15 K	120.6	233	2313
493.15 K	113.4	206.4	2491
498.15 K	105.3	177.3	2677
503.15 K	95.91	142	2878
506.15 K	89.34	109.7	2991
